Where two headings read alike, the source gives them in different places. Each block holds one compound with its values, some of them ahead of it.
Tests used:
HeLa MCTS [1] = assay: 3D MCTS growth inhibition assay; format: cell-based, human; settings: dark; 1–7 and H2TPP 20 μM, cisplatin 10 μM and 30 μM
Protocol: MCTS were treated with the sample (20 μM 1–7, 20 μM tetraphenylporphyrin H2TPP, 10 μM cisplatin, 30 μM cisplatin, 2% DMSO, v%) by replacing 50% of the media with drug supplemented media in the dark for 3 days. After this time, the MCTS were exposed to a 1-Photon (500 nm, 16.7 min, 10.0 mW cm^−2, and 10 J cm^−2) irradiation using a LED light source or 2-Photon (800 nm, 10 J cm^−2 with a section interval of 5 μm) irradiation using a LSM 880 (Carl Zeiss) laser scanning confocal microscope equipped with a Coherent Chameleon 2-Photon laser. The cell culture media was replaced every 2 days. The integrity and diameter of the MCTs was monitored with an Axio Observer Z1 (Carl Zeiss) phase contrast microscope every 24 h.

HeLa MCTS [2] = assay: (Photo-)cytotoxicity on 3D MCTS (ATP concentration); format: cell-based, human; settings: 1-3 as chloride salts
Protocol: The cytotoxicity of the compounds in 3D MCTS was assessed by measurement of the ATP concentration. MCTS were treated with increasing concentrations of the compound (2% DMSO, v%) by replacing 50% of the media with drug supplemented media and incubation for 12 h. After this time, the MCTS were divided in three identical groups. The first group was strictly kept in the dark. The second group was exposed to a 1-Photon irradiation (500 nm, 16.7 min, 10.0 mW cm^−2, and 10 J cm^−2) using a LED light source and the third group was exposed to a 2-Photon irradiation (800 nm, 10 J cm^−2 with a section interval of 5 μm) using a LSM 880 (Carl Zeiss, Germany) laser scanning confocal microscope equipped with a Coherent Chameleon 2-Photon laser. After the irradiation, all groups were incubated additional 48 h. The ATP concertation was measured using a CellTiter-Glo 3D Cell Viability kit (Promega) by measuring the generated chemiluminescence with an infinite M200 PRO (Tecan) plate reader.

[3] = Photostability (absorption spectra upon irradiation); format: physicochemical; settings: 450 nm, 0 to 10 min (13.2 J cm^−2), air-saturated acetonitrile
Protocol: The sample was prepared in an air-saturated acetonitrile solution. Using a Atlas Photonics LUMOS BIO irradiator, the sample was constantly irradiated at 450 nm in time intervals from 0 to 10 min (13.2 J cm^−2). The absorption spectra from 350 to 700 nm was monitored with a SpectraMax M2 Microplate Reader (Molecular Devices) at each time interval. As positive and negative controls, respectively, [Ru(2,2′-bipyridine)3]Cl2 and Protoporphyrin IX were used.

[4] = tested on: human cervical carcinoma (HeLa) cells; assay: (Photo-)cytotoxicity on 2D cell monolayers, HeLa; format: cell-based; settings: for IC50: 1-3 as chloride salts
Protocol: (§1) A total of 4 × 10^3 cells were seeded on 96-well plates and allowed to adhere overnight. The cells were treated with increasing concentrations of the sample diluted in cell media achieving a total volume of 200 μL. The cells were incubated with the sample for 8 h and, after this time, the medium refreshed. To study the phototoxic effect of the sample, the cells were exposed to 480 nm (spectral half-width: 20 nm, 10 min, 5.2 mW cm^−2, 3.1 J cm^−2) or 540 nm (spectral half-width: 30 nm, 40 min, 4.0 mW cm^−2, 9.5 J cm^−2) light using an Atlas Photonics LUMOS BIO irradiator. To study the dark cytotoxicity of the sample, the cells were not irradiated and the medium exchanged. The cells were grown for an additional 40 h at 37 °C. After this time, the medium was replaced with fresh medium containing resazurin with a final concentration of 0.2 mg mL^−1. The cells were incubated for 4 h and the amount of the fluorescent product resorufin determined (λex = 540 nm, λem = 590 nm) with a SpectraMax M2 Microplate Reader (Molecular Devices). The obtained data was analyzed with the GraphPad Prism software.

[5] = tested on: noncancerous retinal pigment epithelium (RPE-1) cells
Protocol: as §1

[6] = tested on: mouse colon carcinoma (CT-26) cells
[7] = tested on: human glioblastoma astrocytoma (U373) cells;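 note: Resazurin-to-resorufin fluorescence viability readout, 8 h compound exposure then medium change, light dose 3.1 J cm^−2 at 480 nm or 9.5 J cm^−2 at 540 nm, analysed 40 h later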
[8] = tested on: human glioblastoma astrocytoma (U373) cells; assay: (Photo-)cytotoxicity on 2D cell monolayers, U373;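 note: Resazurin-to-resorufin fluorescence viability readout, 8 h compound exposure then medium change, light dose 3.1 J cm^−2 at 480 nm or 9.5 J cm^−2 at 540 nm, analysed 40 h later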
[9] = tested on: noncancerous retinal pigment epithelium (RPE-1) cells; assay: (Photo-)cytotoxicity on 2D cell monolayers, RPE-1
Protocol: as §1

[10] = tested on: mouse colon carcinoma (CT-26) cells; assay: (Photo-)cytotoxicity on 2D cell monolayers, CT-26
[11] = design: method as in PMID 10907495; settings: cited from earlier work
[12] = design: method as in earlier work; settings: acetonitrile; cited from earlier work
[13] = Homo sapiens, dark, read-out: IC50 dark

Structure (SMILES): C1=Cc2nc1c(-c1ccccc1)c1nc(c(-c3ccccc3)c3ccc([nH]3)c(-c3ccccc3)c3ccc([nH]3)c2-c2ccccc2)C=C1 [H2TPP, tetraphenylporphyrin, reference compound]
tumor growth inhibition effect (MCTS volume) (HeLa MCTS [1]): do not show any inhibitory effect
IC50 (HeLa MCTS [2]; [13]): > 100 µM
IC50 (HeLa MCTS [2]; Homo sapiens, light or radiation study, 1P 500 nm, read-out: IC50 1P irradiation (500 nm, 10 J cm-2)): > 100 µM
IC50 (HeLa MCTS [2]; Homo sapiens, light or radiation study, 2P 800 nm, section interval 5 μm, read-out: IC50 2P irradiation (800 nm, 10 J cm-2)): > 100 µM

photostability (change of absorption spectra upon irradiation) [3]: drastically changed
IC50 [6]: 3.5 µM
IC50 [7]: 3.6 µM
Structure (SMILES): C=CC1=C(C)c2cc3[nH]c(cc4nc(cc5[nH]c(cc1n2)c(C)c5CCC(=O)O)C(CCC(=O)O)=C4C)c(C)c3C=C [PpIX, Protoporphyrin IX, reference compound]
IC50 ([4]; Homo sapiens, 10 min, 480 nm, read-out: IC50 480 nm (10 min, 3.1 J cm-2)): 2.5 µM
IC50 ([4]; Homo sapiens, 40 min, 540 nm, read-out: IC50 540 nm (40 min, 9.5 J cm-2)): 2.1 µM
IC50 [4, 13]: > 100 µM
PI (480 nm) ([4]; dark vs 480 nm): > 40.0
PI (540 nm) ([4]; dark vs 540 nm): > 47.6
IC50 [5]: 3.8 µM
IC50 ([8]; Homo sapiens, U373 MG, 10 min, read-out: IC50 480 nm (10 min, 3.1 J cm-2)): 3.3 µM
IC50 ([8]; Homo sapiens, U373 MG, read-out: IC50 dark): > 100 µM
PI (480 nm) ([8]; U373, dark vs 480 nm): > 30.3
PI (540 nm) ([8]; U373, dark vs 540 nm): > 27.8
IC50 ([9]; Homo sapiens, RPE-1, 40 min, read-out: IC50 540 nm (40 min, 9.5 J cm-2)): 3.3 µM
IC50 ([9]; Homo sapiens, RPE-1, read-out: IC50 dark): > 100 µM
PI (480 nm) ([9]; RPE-1, dark vs 480 nm): > 26.3
PI (540 nm) ([9]; RPE-1, dark vs 540 nm): > 30.3
PI (480 nm) ([10]; CT-26, dark vs 480 nm): > 28.6
PI (540 nm) ([10]; CT-26, dark vs 540 nm): > 24.4
IC50 ([10]; Mus musculus, CT26, 40 min, read-out: IC50 540 nm (40 min, 9.5 J cm-2)): 4.1 µM
IC50 ([10]; Mus musculus, CT26, read-out: IC50 dark): > 100 µM

Structure (SMILES): O=C([O-])c1c(Cl)c(Cl)c(Cl)c(Cl)c1-c1c2cc(I)c(=O)c(I)c-2oc2c(I)c([O-])c(I)cc12.[Na+].[Na+] [Rose Bengal]
Φ, singlet oxygen quantum yield of the reference [11]: 76%

Structure (SMILES): [Cl-].[Cl-].[Ru+2].c1ccc(-c2ccccn2)nc1.c1ccc(-c2ccccn2)nc1.c1ccc(-c2ccccn2)nc1 [[Ru(2,2′-bipyridine)3]Cl2]
Φem, luminescence quantum yield of the reference [12]: 5.9%

Structure (SMILES): N.N.[Cl][Pt][Cl] [cisplatin, reference compound]
IC50 ([4]; dark, read-out: IC50 dark): 10.5 µM
tumor growth inhibition effect (MCTS volume) (HeLa MCTS [1]): weak effect on the tumor growth
IC50 (HeLa MCTS [2]; dark, read-out: IC50 dark): 18.6 ± 1.3 µM
IC50 ([8]; read-out: IC50 dark, U373, dark, 1-3 as chloride salts): 17.6 µM
IC50 ([9]; read-out: IC50 dark, RPE-1, dark, 1-3 as chloride salts): 29.3 µM
IC50 ([10]; read-out: IC50 dark, CT-26, dark, 1-3 as chloride salts): 6.5 µM
